“Also recorded” adds a separate entry of the source.
Legend:
[1] = Drug diffusivity in HMW HAMC; type: physicochemical; conditions: in 2:3 HMW HAMC
Source text: The diffusivity of a given drug in HMW HAMC, D, was normalized to its diffusivity in water, Do, to determine the impact of HMW HAMC on molecular diffusion [N. A. Peppas, C. T. Reinhart, Solute diffusion in swollen membranes. 1. A new theory. J. Membr. Sci. 15 (3) (1983) 275-287. Approximations of D for NBQX, α-chymotrypsin, and IgG in HMW HAMC were estimated according to the one dimensional, unidirectional, thin film approximation for non-swelling samples at short times [J. Crank, The Mathematics of Diffusion, Clarendon Press, Oxford, 1956.]. Normalized diffusion coefficients were then determined with respect to previously reported values of Do according to:
[formula] Where Mt/M∞ is the cumulative mass of drug detected at time, t, divided by the total mass released and l is the sample thickness.
Approximately 100 mg of HAMC with a drug loading of 100-1000 μg/mL was deposited into a cylindrical sample tube to yield a gel with thickness of 0.3 cm and one exposed surface. Samples were warmed to 37° C. and combined with 900 μL of warm aCSF. The buffer was sampled with total replacement at 0.5, 1, 2, and 5 hours and analyzed and described below.

[2] = In vitro drug release from HAMC hydrogels and composites; type: physicochemical; conditions: for burst release from PLGA particles in composite versus free particles: composite 2:3 HMW HAMC
Description: Release profiles of each particle encapsulated drug were obtained by depositing approximately 150 mg of drug loaded 2:3 HMW HAMC into polypropylene sample tubes, warming to 37° C., and adding 600 μL warm aCSF. […] Particle loads were typically 30-40 mg PLGA per gram of composite. […] All sample aliquots were immediately frozen and stored at −20° C. until analysis. […] Each sample was thawed immediately prior to assay and clear supernatant analyzed for dissolved drug.

[3] = Characterization of drug loaded PLGA particles; type: physicochemical; conditions: laser diffraction or dynamic light scattering
Description: PLGA microparticle synthesis was optimized for each factor encapsulated and thus synthesis varied slightly for each factor, described below for EGF, dbcAMP, IgG and α-chymotrypsin. Microparticle size was determined by laser diffraction (Mastersizer 2000™, Malvern Instruments, Malvern, UK): nanoparticle size was determined by dynamic light scattering (Zetasizer Nano ZS™, Malvern Instruments). Encapsulation efficiency was defined as the fraction of drug detected per unit mass of particle compared to the theoretical maximum. Particle yield is the mass of recovered particulate PLGA adjusted for drug content, divided by the initial PLGA mass. Drug loading is the mass fraction of drug in the particles expressed as microgram of drug per milligram of particles.
EGF content was determined by degrading the PLGA in 1 M NaOH for 24 h at 37° C., centrifuging the resulting suspension and assaying the supernatant for total protein using the BCA assay.
dbcAMP content was determined by DCM/water solvent extraction. PLGA was dissolved in DCM and extracted 3×. Aqueous dbcAMP concentration was determined by UV absorbance at 273 nm on a Nanodrop ND-1000™ (Thermo Fisher Scientific).
Protein content was determined based on a method by Wong [Wong, H. M., Wang, J. J., and Wang, C, In Vitro Sustained Release of Human Immunoglobulin G from Biodegradable Microspheres. Ind. Eng. Chem. Res., 2001. 40: p. 933-948]. […]

[4] = tested on: mature blood vessels in the dorsal horns of the injured spinal cord; assay: Intrathecal FGF2 delivery with composite HAMC after compressive spinal cord injury, SMI-71 blood vessel count; type: in vivo, Sprague Dawley rats; conditions: rat, moderate compressive SCI at T2, 10 μl intrathecal composite 1:3 HMW HAMC with FGF2 PLGA nanoparticles, 28 days
Description: Physical hydrogel blends of hyaluronan (HA) and methyl cellulose (MC) were prepared in aCSF at 1 wt % 2600 kg/mol HA and 3 wt % 300 kg/mol MC as previously reported (1:3 HMW HAMC [M. D. Baumann, C. E. Kang, J. C. Stanwick, Y. Wang, H. Kim, Y. Lapitsky, and M. S. Shoichet, An injectable drug delivery platform for sustained combination therapy, J Control Release. (2009)]. Briefly, MC and HA were sequentially mechanically dispersed in aCSF and allowed to dissolve at 4° C. To form composite 1:3 HMW HAMC, slurries of particles were added together for a final concentration of 100 mg/mL. PLGA nanoparticles were prepared from a w/o/w double emulsion as previously described [[…]], either as blank nanoparticles or encapsulating FGF2.
All animal procedures were performed in accordance with the Guide to the Care and Use of Experimental Animals (Canadian Council on Animal Care) and protocols were approved by the Animal Care Committee of the Research Institute of the University Health Network. […] Blood vessels were then counted in the dorsal horns of the spinal cord (See FIG. 8). Statistical significance was determined by ANOVA followed by Tukey's post-hoc test.

| duration of in vitro release of PLGA particle encapsulated drug ([2]; PLGA particles dispersed in composite 2:3 HMW HAMC) [days] | Compound | normalized diffusion coefficient [1] | release mechanism of dissolved drug ([2]; dissolved in 2:3 HMW HAMC) | Particle Size (μm) [3] [μm] | burst release from PLGA particles in composite versus free particles [2] | time to complete in vitro release of dissolved drug ([2]; dissolved in 2:3 HMW HAMC, aCSF, 37 °C) [days] | mature blood vessels in the dorsal horns (angiogenesis) [4] |
| --- | --- | --- | --- | --- | --- | --- | --- |
|  | 2,3-Dioxo-6-nitro-1,2,3,4-tetrahydrobenzo[f]quinoxaline-7-sulfonamide disodium salt [NBQX, reference compound] | ~0.1 | diffusion limited |  |  |  |  |
| 28 | CCCC(=O)Nc1ncnc2c1ncn2[C@@H]1O[C@@H]2COP(=O)([O-])O[C@H]2[C@H]1OC(=O)CCC.[Na+] [dbcAMP, N^6,2′-O-dibutyryladenosine 3′,5′-cyclic monophosphate sodium salt, reference compound] |  |  | 37 ± 14 | reduction in burst release |  |  |
|  | EGF: Recombinant human epidermal growth factor |  |  | 10 ± 2 | atypical behaviour |  |  |
|  | FGF-2: Recombinant human basic fibroblast growth factor | ~0.1 | diffusion limited |  |  | ≤ 4 | results in angiogenesis; also recorded: enhanced blood vessels |

From patent US9205046B2, “Enhanced stability of inverse thermal gelling composite hydrogels” (The Governing Council of the University of Toronto, priority 2005, dated 2015)
